Results: patent US7964565B2, “Method of inhibiting inflammation in a mammal by administering Bcl protein” (University of Washington Center for Commercialization, a …, priority 2004, dated 2011)

B1: rA1: human A1 minus 25 amino acids at the carboxy terminal and addition of 6 histidine on the remaining protein (protein, listed as Homo sapiens)
chain: MTDCEFGYIYRLAQDYLQCVLQIPQPGSGPSKTSRVLQNVAFSVQKEVEKNLKSCLDNVNVVSVDTARTLFNQVMEKEFEDGIINWGRIVTIFAFEGILIKKLLRQQIAPDVDTYKEISYFVAEFIMNNTGEWIRQNGGWENGFVKKFEPKSHHHHHH

What was measured:
[1] = system: C57BL/6 mice, hind-limb skeletal muscle ischemia-reperfusion injury; assay: Hind-limb tourniquet ischemia-reperfusion, plasma creatine kinase; assay type: in vivo, mouse; details: tourniquet 90 min, reperfusion 3 hours
Protocol: Skeletal muscle was made ischemic by applying a tourniquet to the hind-limbs of C57BL/6 mice for 90 minutes, then removing the tourniquet and allowing reperfusion for an additional 3 hours. Mice were treated with active peptide 1 (SEQ ID NO:17) or peptide 2 (SEQ ID NO:18) or peptide 3 (SEQ ID NO:19), or with the scrambled (control) peptide (SEQ ID NO:20). Peptide-1 (SEQ ID NO:17) is from the BH4 region of Bcl-2. Peptide-2 (SEQ ID NO:18) is from the first alpha helix of A1. Peptide-3 (SEQ ID NO:19) is from the BH4 region of Bcl-XL. The amino acid sequences of peptide 1 (SEQ ID NO:17), peptide 2 (SEQ ID NO:18), peptide 3 (SEQ ID NO:19), and the scrambled (control) peptide (SEQ ID NO:20) are set forth in Table 1.
At the end of the 3 hours of reperfusion the mice were killed, and blood was taken for determination of plasma creatine kinase (CK) concentration. The CK concentration was used as an indicator of muscle injury. Elevated levels of CK indicate higher levels of muscle injury. […] The CK concentration for peptide 1 (SEQ ID NO:17) treated mice was 19,020+/−5481 IU/L (n=12) compared with control peptide (SEQ ID NO:20) where CK concentration was 60,530+/−5759 IU/L (n=12). The CK concentration for peptide 2 (SEQ ID NO:18) treated mice was 33,860+/−5997 IU/L (n=11) compared with control peptide (SEQ ID NO:20) where CK concentration was 69,430+/−11,170 IU/L (n=12). The CK concentration for peptide 3 (SEQ ID NO:19) treated mice was 49,500+/−3,901 IU/L (n=5) compared with control peptide (SEQ ID NO:20) where CK concentration was 80,880+/−11,430 IU/L (n=6).

[2] = system: C57BL/6 mice, hind limb skeletal muscle ischemia-reperfusion injury; assay: Hind limb ischemia-reperfusion by aortic cross-clamp, plasma creatine kinase; assay type: in vivo; details: protein injected i.p. the day before 90 min hind limb ischemia and 180 min reperfusion; 12 mice per group; rBcl-2 1 μg per mouse vs combined rUbiquitin/vehicle; rA1 vs rUbiquitin
Protocol: Mouse skeletal muscle was made ischemic by cross-clamping the aorta distal to the renal artery for 90 minutes, then the clamp was removed and hind limb reperfusion continued for 3 hours. At the end of reperfusion (3 hours after clamp removal) the mice were killed, and the concentration of plasma creatine kinase (CK) was measured and used as an indicator of injury (creatine kinase concentration increases as a result of skeletal muscle injury).
Blood from EμT-Bcl-2 mice and their littermate control mice was drawn into heparin and plasma was extracted by centrifugation. One ml of plasma from EμT-Bcl-2 mice, or one ml of plasma from littermate control mice, was injected into the peritoneum of C57BL/6 mice the day before the mice were subjected to 90 minutes of ischemia and 3 hours of reperfusion as described in Example 1 herein. Blood was drawn from the mice and plasma CK concentration was determined at the end of reperfusion.
Control Jaws II cells expressed only EGFP. […]
Medium from cell cultures of hBcl-2-Jaws II cells and EGFP-Jaws II cells was harvested 24 hours after the start of incubation and concentrated approximately 10-fold using centrifugal filters with a molecular size cut-off of approximately 3 kD. […] Plasma was extracted from the mice after ischemia-reperfusion, and plasma CK concentration was determined. […]

[3] = experiment with peptide 2, n=11 peptide, n=12 control

Row | Molecule | plasma CK concentration ([1]; experiment with peptide 1, n=12 per group) | plasma CK concentration [1, 3] | plasma CK concentration ([1]; experiment with peptide 3, n=5 peptide, n=6 control) | plasma creatine kinase levels vs control [2]
1 | control peptide: scrambled (control) peptide; TWHMYGNQRDYIGDRSKIVYKLEYE (SEQ ID NO:20) | 60,530+/−5759 IU/L | 69,430+/−11,170 IU/L | 80,880+/−11,430 IU/L | 
2 | peptide 2: from the first alpha helix of A1; FGYIYRLAQDYLQCVLQIPZPGSGP (SEQ ID NO:18) |  | 33,860+/−5997 IU/L |  | 
3 | B1 |  |  |  | significantly (p<0.05) lower
